This is an account of results in patent publication US20250179126A1, “A NOVEL PEPTIDE FROM A PHOTOSYNTHETIC BACERIUM DIRECTLY TARGETS MITOCHONDRIA TO TRIGGER APOPTOSIS IN ADVANCED PROSTATE CANCER CELLS” (priority 2022, published 2025).

Entries after “also recorded” stand apart in the source; their conditions may differ.

Data set [1] relates to PC3 prostate cancer cells. The experiment in a line: MTT cell viability assay, PC3 prostate cancer cells. Type of data set: cell-based, human. As to the method: (§1) Cell lines and culture: Human cancer and noncancer (immortalized and nonimmortalized) cell lines were obtained from the American Type Culture Collection [prostate cancer (PC3, DU145 and LNCaP), normal prostate (CRL11611), breast cancer (MCF-7), ovarian cancer (SK-OV3 adenocarcinoma), lung cancer (A549)]. MDD2 breast cancer cells (p53 dominant-negative) were provided courtesy of Dr Andrei V. Gudkov, Roswell Park Cancer Institute. 20 All cell lines were cultured in MEM-E (Invitrogen) supplemented with 10% heat-inactivated fetal bovine serum (Atlanta Biological, Inc.), 100 units/mL penicillin, and 100 μg/mL streptomycin at 37° C. in 5% CO2.

Data set [2] deals with MDD2 breast cancer cells. Briefly: MTT cell viability assay, MDD2 breast cancer cells. Type of data set: cell-based, human. To be noted: MDD2 (p53 dominant negative), 0.1-100 μM, 24 hr. On the procedure:
as §1
Cytotoxicity assay: The MTT assay was performed as we previously described (Cha et al., Cancer Research 2020, 80: 1615-1623).

Data set [3] deals with PC3 cells. Briefly: Cellular membrane toxicity, LDH leakage assay. Type of data set: cell-based, human. To be noted: PC3, 0.2-200 μM, 37° C. On the procedure: FIG. 6A-6B: Cellular membrane toxicity assays. […] Cells treated with lysis buffer were defined as having 100% LDH release. Mean±SE (N=3).
Cellular membrane toxicity: LDH assays were performed as we previously described (Cha et al., Cancer Research 2020, 80: 1615-1623).

Data set [4] relates to PC3 xenograft tumors. The experiment in a line: PC3 xenograft animal model. Type of data set: in vivo, athymic mice. From the text: FIG. 10A-10D: Inhibition of PC3 xenograft tumor growth. 10A, When the s.c. tumors reached ˜5 mm, athymic mice were randomized into control (PBS) and i.p. treatment groups. Mean±SE (N=5). *P<0.01. […] 10C, At the end of treatment, tumors were dissected and weighed. * P<0.01. 10D, In sections of tumors from the control group, there was a marked increase in Ki-67-positive proliferating cells (stained brown and counterstained with haematoxylin, ×40), and only a few apoptotic cells were observed, as determined by TUNEL and caspase-3 (Casp-3) staining. There was an apparent sharp reduction in Ki-67-positive proliferating cells and a higher number of TUNEL-positive apoptotic cells in the aurB-treated group compared to the control group. Similarly, Casp-3 expression in aurB-treated tumors was increased markedly compared with that in untreated controls.
Xenograft animal model: Human prostate cancer cells (PC3) were injected s.c. into the right flanks of 5- to 6-week-old male athymic mice 78. When tumors reached 5 mm in diameter, animals were randomized into control and treatment groups. […] All animals were weighed twice a week. At necropsy, tumors were dissected and weighed. Statistical comparisons were performed by one-way analysis of variance (ANOVA) (control vs treatment). Tumor samples were fixed overnight in 10% buffered formalin. Fixation was followed by dehydration, clearing and infiltration. Samples were then embedded in paraffin, and 4 μm sections were cut on a microtome. Ki67 (LabVision) staining was performed on the tissue sections using a Vector Vectastain Elite ABC Kit. The TUNEL assay was performed on the sections using a Millipore Sigma ApopTag® Peroxidase In Situ Apoptosis Detection Kit.

The subject of data set [5] is spontaneous mammary tumors. Type of data set: in vivo, MMTV-PyMT transgenic mice. The source says:
FIG. 26A-26H: Azurin-producing P. aeruginosa in human tumors. The azurin-encoding gene (azu) was detected in tumors from patients with breast cancer and melanoma. It was amplified by PCR with P. aeruginosa azu-specific primers and confirmed by DNA sequencing. […] In melanoma (26A), 27.6% (8 of 29) of primary tumors and 5.9% (2 of 34) of metastatic tumors were azu positive (P<0.05). In breast cancer (26B), 22.7% (5 of 22) of primary tumors and 14.3% (2 of 14) of metastatic tumors were azu positive (P>0.05). In addition, frozen tumor samples were processed for immunogold transmission electron microscopy (TEM) by using anti-P. aeruginosa and anti-azurin antibodies. […] Magnification: ×3000. […] Survival analysis of patients with azu-positive vs. azu-negative primary melanoma (26E, P<0.01) and primary breast cancer (26F, P<0.05) tumors. 26G—Hemizvgous MMTV-PyMT transgenic mice were injected with either PBS control or 2.5 mg/kg azurin (intraperitoneally, 3× weekly) for 2 months. The mean+SE values of tumor volume were calculated. h Tumor-free survival curve was generated with the PBS control and 2.5 mg/kg azurin groups of MMTV-PyMT transgenic mice. Median tumor-free survival of the PBS control and azurin-treatment groups was 67 and 72 days, respectively. P=0.015
FIG. 29A-29C: Effect of azurin from P. aeruginosa in a transgenic animal model. 29A. Near-infrared red (NIR) dye-conjugated azurin or PBS was injected i.v. into transgenic mice that spontaneously develop mammary tumors. Twenty-four hours after azurin injection, mice were imaged with a photodynamic eye (PDE) system (left: photographic image, right: NIR fluorescence image at 800 nm). 29B. At the end of the study, the tumors were resected.
Effect of azurin on transgenic mice: Hemizygous MMTV-PyMT (mouse mammary tumor virus-polyoma middle tumor-antigen) female mice were obtained from The Jackson Laboratory. […] In order to reach this level of azurin in mouse (25 g-body weight, 2 ml total blood volume), azurin does at 2.5 mg/kg was determined. Tumor volume and body weights were determined three times weekly. […]

Where [6] appears, read: tumor sections, aurB 5 mg/kg daily i.p.

“LVN GGD DVA AAV NTA AQN NAD ALF VPPP (LVNGGDDVAAAVNTAAQNNADALFVPPP) [aurB]”: the “effect on p53-inactive cancer cells (MTT)” value in data set [1] (PC3 (p53-null), 0.1-100 μM, 24 hr) is recorded as “dose-dependent”. In addition, in data set [1] (PC3 (p53-null, AR−), 24-72 hr, paclitaxel 1 nM), the “cytotoxic effect (MTT cell viability)” value is reported as “significantly induced dose-dependent cytotoxic effects; also recorded: more sensitive than the normal prostate cell line”. The inhibition rate in data set [1] (PC3, 100 μM for 72 hr) is listed as ~50%. Further, in data set [2], the “effect on p53-inactive cancer cells (MTT)” value is “dose-dependent”. Further, the “cellular membrane toxicity (LDH release)” value in data set [3] was “Neither aurA nor aurB induced cellular membrane toxicity at any concentrations”. In addition, the tumor weight result in data set [4] (at end of treatment, aurB 5 mg/kg daily i.p.) is listed as “significantly decreased tumor weight”. The “tumor growth inhibition vs PBS control” value in data set [4] (end of treatment, four weeks i.p., aurB 5 mg/kg daily, Ptxl 10 mg/kg once a week) is ~65%. In data set [4] (four weeks i.p., aurB 5 mg/kg daily, p28 10 mg/kg daily), the “antitumor effect on PC3 tumor growth” value is “significantly inhibited”. The “behavioral change, body weight” value in data set [4] (four weeks of i.p. treatment) is on record as “without inducing either a behavioral change or a loss in body weight”. For the same substance, in data set [4] (setting [6]), the “Ki-67-positive proliferating cells in tumors” value was “substantially reduce the number of proliferating Ki-67-positive cells”, the “TUNEL-positive apoptotic cells in tumors” value is on record as “number of apoptotic cells was increased” and the “caspase-3-positive cancer cells in tumors” value was “substantial increase in caspase-3-positive cancer cells”.
With “azurin: 14 kDa periplasmic copper protein of 128 amino acids from P. aeruginosa; purified recombinant”, the tumor-free survival result in data set [5] (2.5 mg/kg azurin i.p. 3× weekly) is reported as “significantly extended”. Moreover, the “tumor growth (tumor volume)” value in data set [5] (2.5 mg/kg azurin i.p. 3× weekly, 2 months) is on record as “significantly inhibited”. Besides, the Median tumor-free survival in data set [5] (2.5 mg/kg azurin intraperitoneally, 3× weekly) is recorded as 72 days.
